The results in this text go back to publication PMC8786932, “Bicyclic azetidines target acute and chronic stages of Toxoplasma gondii by inhibiting parasite phenylalanyl t-RNA synthetase” (Nature Communications, 2022).

Where “and” joins values, the source holds several entries; their conditions need not be identical. Identical values can stand only once. Like-named read-outs stand apart in the source and are kept apart here.

In experiment [1] the test system is T. gondii RHΔΔ TgPheRS[M484I] [V262A] double mutant. Nature of the experiment: Tachyzoite lytic assay, M484I_V262A double mutant. The format is cell-based, Toxoplasma gondii. The conditions noted are these: for EC50: Toxoplasma gondii. Here is the method: In vitro cultures of HFF cells containing mature vacuoles were scraped, passaged through 23 g blunt end needles, and filtered using 3 micron filters. Purified parasites were resuspended in 350 μL of cytomix plus[49] and combined in a BTX 4 mm gap cuvette with 30 μL of PCR amplified templates corresponding to mutations of interest and 10 μg of pSAG1:Cas9-GFP U6:sgTgPheRS^[mut] (in 20 μL, 400 μL total volume, see Supplementary Data 1 for sgRNA sequences) prior to electroporation using a BTX ETM 830 electroporator. Amplified templates for TgPheRS mutations were generated from gBlocks (Integrated DNA Technologies, Coralville, IA, USA) that contain a BclI restriction site that replaces the PAM sequence to protect the repair template from being cut by Cas9. At 16 h post-transfection, transgenic parasites expressing pSAG1:Cas9-GFP were sorted on a Sony SH800 FACS sorter directly into 96-well plates. Single clones containing TgPheRS^[mut] were identified by amplifying a ~500 bp PCR fragment around introduced mutation followed by digestion using BclI (New England Biolabs) BclI sensitive clones were expanded and the locus was Sanger sequenced to verify incorporation of each independent mutation. To generate firefly luciferase (FLuc) expressing strains, freshly harvested parasites were combined with 20 μg of pTUB-FLUC DHFR flox plasmid and 10 μg of pSAG1:Cas9-GFP U6:sgUPRT[50] (in 50 μL cytomix plus) and transformed by electroporation as described above. […]
Parasite growth on HFF monolayers was monitored using a 96-well plate-based lytic assay modified from a previously described protocol. […] Plates were rinsed with water, air dried, and absorption quantified on the Cytation 3 multi-mode imager at 570 nm wavelength. % parasite growth was calculated as 100−[(OD value for infected cultures at each concentration of compound/average OD value for no compound and no parasite infection) × 100]. EC50 values were calculated based on the mean of three biological replicates with each replicate containing two technical replicates.

The test system of experiment [2] is firefly luciferase expressing T. gondii strains (GT1, RH, ME49, CTG, MAS, RUB, FOU, VAND). Briefly: Luciferase-based growth assay, FLuc parasites of diverse genotypes. The format is cell-based. The conditions noted are these: Toxoplasma gondii. Here is the method: In vitro cultures of HFF cells containing mature vacuoles were scraped, passaged through 23 g blunt end needles, and filtered using 3 micron filters. Purified parasites were resuspended in 350 μL of cytomix plus[49] and combined in a BTX 4 mm gap cuvette with 30 μL of PCR amplified templates corresponding to mutations of interest and 10 μg of pSAG1:Cas9-GFP U6:sgTgPheRS^[mut] (in 20 μL, 400 μL total volume, see Supplementary Data 1 for sgRNA sequences) prior to electroporation using a BTX ETM 830 electroporator. Amplified templates for TgPheRS mutations were generated from gBlocks (Integrated DNA Technologies, Coralville, IA, USA) that contain a BclI restriction site that replaces the PAM sequence to protect the repair template from being cut by Cas9. At 16 h post-transfection, transgenic parasites expressing pSAG1:Cas9-GFP were sorted on a Sony SH800 FACS sorter directly into 96-well plates. Single clones containing TgPheRS^[mut] were identified by amplifying a ~500 bp PCR fragment around introduced mutation followed by digestion using BclI (New England Biolabs) BclI sensitive clones were expanded and the locus was Sanger sequenced to verify incorporation of each independent mutation. To generate firefly luciferase (FLuc) expressing strains, freshly harvested parasites were combined with 20 μg of pTUB-FLUC DHFR flox plasmid and 10 μg of pSAG1:Cas9-GFP U6:sgUPRT[50] (in 50 μL cytomix plus) and transformed by electroporation as described above. Parasites were allowed to recover overnight followed by sequential selection with pyrimethamine (1.0 μM) and 5-flurodeoxyuracil (FUDR, 10 μM), as described previously. Stable clones were isolated by limiting dilution and a clone from each genetic background selected based on high luciferase activity (Table 1).
All assays were carried out in a 96-well plate format containing confluent HFF monolayers to support parasite growth. To avoid edge effects, only the inner 60 wells of each plate were used. All compounds described were provided by the Broad Institute as 10 mM stocks in 100% DMSO and stored at −80 °C prior to use. Pyrimethamine (Sigma-Aldrich) was prepared as 5 mM stock in 100% DMSO and stored at −20 °C prior to use.

For experiment [3], the target named is T1, TgPheRS V262A M484I (Toxoplasma gondii, UniProt A0A125YPN6, M484I/V262A).
T1 sequence (A0A125YPN6 1-525 V262A/M484I): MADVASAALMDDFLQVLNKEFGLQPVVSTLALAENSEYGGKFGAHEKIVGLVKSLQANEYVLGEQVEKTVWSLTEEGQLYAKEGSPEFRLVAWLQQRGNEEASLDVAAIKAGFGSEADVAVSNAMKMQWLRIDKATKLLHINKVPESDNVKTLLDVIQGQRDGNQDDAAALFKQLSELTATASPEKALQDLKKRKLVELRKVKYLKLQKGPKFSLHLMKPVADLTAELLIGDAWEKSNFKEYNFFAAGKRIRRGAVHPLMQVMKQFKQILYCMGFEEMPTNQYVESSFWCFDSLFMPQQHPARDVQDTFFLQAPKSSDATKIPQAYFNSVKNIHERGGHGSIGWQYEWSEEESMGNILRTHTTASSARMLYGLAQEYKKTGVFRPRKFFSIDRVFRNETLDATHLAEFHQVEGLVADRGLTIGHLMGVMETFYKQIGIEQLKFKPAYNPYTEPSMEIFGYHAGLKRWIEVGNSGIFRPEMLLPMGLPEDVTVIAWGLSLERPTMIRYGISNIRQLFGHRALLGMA
T1 sequence (S8EZ50 1-675 partner): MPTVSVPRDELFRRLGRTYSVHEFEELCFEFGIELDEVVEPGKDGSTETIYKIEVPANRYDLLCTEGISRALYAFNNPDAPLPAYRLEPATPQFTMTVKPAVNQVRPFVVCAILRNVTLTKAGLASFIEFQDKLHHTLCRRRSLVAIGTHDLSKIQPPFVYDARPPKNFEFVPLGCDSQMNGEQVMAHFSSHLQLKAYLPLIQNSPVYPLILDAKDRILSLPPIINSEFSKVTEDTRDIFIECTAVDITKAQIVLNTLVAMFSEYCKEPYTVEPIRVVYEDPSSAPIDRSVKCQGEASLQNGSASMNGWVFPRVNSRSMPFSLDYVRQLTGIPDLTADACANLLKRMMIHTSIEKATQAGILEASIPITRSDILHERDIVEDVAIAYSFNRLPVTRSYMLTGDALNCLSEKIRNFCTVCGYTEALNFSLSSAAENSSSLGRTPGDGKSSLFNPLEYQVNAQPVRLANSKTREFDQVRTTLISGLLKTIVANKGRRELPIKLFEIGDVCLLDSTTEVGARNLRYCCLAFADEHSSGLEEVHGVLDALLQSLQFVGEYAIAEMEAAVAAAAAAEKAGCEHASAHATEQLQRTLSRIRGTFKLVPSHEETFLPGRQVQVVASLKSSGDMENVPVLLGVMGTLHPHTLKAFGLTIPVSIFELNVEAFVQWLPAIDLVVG
Nature of the experiment: Enzyme assay, TgPheRS V262A M484I double mutant. The conditions noted are these: for enzyme assay readout (raw): V262A / M484I. The class given is biochemical.

A word on the EC50: it is the midpoint of the concentration-response curve. The term IC50 denotes the concentration at which inhibition is half-maximal. For the molecule `COc1ccc(NC(=O)N2CCCCN3[C@H](CN(C)C)[C@H](c4ccc(C#Cc5ccccc5)cc4)[C@@H]3C2)cc1` [BRD7929], in experiment [1] (M484I and V262A double mutant), the “shift of EC50, double mutant” value is on record as “only shifted the EC50 slightly more than every single mutation”. Also, the EC50 in experiment [1] (72 h, read-out: EC50, M484I_V262A) was 265 nM; in experiment [1] (Table S4, V262A-M484I, read-out: EC50 (growth restriction)), 234 nM; in experiment [2] (GT1, all eight lineages, read-out: EC50 against tachyzoite growth, all lineages), less than 50 nM; in experiment [2] (GT1, strain CTG, type III, N. America, read-out: EC50), 31.5 nM; in experiment [2] (GT1, strain FOU, type VI, Europe, read-out: EC50) it was 45.1 nM; in experiment [2] (GT1, strain GT1, type I, N. America, read-out: EC50) it was 16.1 nM. Also, the EC50 turned out to be 42 nM in experiment [2] (GT1, strain MAS, type IV, Europe, read-out: EC50); 49.4 nM in experiment [2] (GT1, strain ME49, type II, Europe, read-out: EC50); 24.1 nM in experiment [2] (GT1, strain RH, type I, Europe, read-out: EC50); 26.9 nM in experiment [2] (GT1, strain RUB, type V, S. America, read-out: EC50); 27.9 nM in experiment [2] (GT1, strain VAND, type X, S. America, read-out: EC50). Further, in experiment [3] (Table S4, V262A-M484I, read-out: IC50 (enzyme inhibition)), the IC50 was 197 nM. The “enzyme assay readout (raw)” value is 0.3462 and 0.3680 and 0.4006 in experiment [3] (0.000005 μM); 0.3131 and 0.3315 and 0.3158 in experiment [3] (0.000050 μM); 0.3040 and 0.3143 and 0.2881 in experiment [3] (0.000500 μM); 0.2789 and 0.2890 and 0.2929 in experiment [3] (0.005000 μM); 0.2807 and 0.2760 and 0.2780 in experiment [3] (0.050000 μM); 0.2333 and 0.2480 and 0.2628 in experiment [3] (0.500000 μM). Further, the “enzyme assay readout (raw)” value is 0.2051 and 0.1829 and 0.2098 in experiment [3] (5.000000 μM); 0.1004 and 0.1152 and 0.1172 in experiment [3] (50.000000 μM).
